Where a SMILES comes first, the peptide text is derived from it. Bridges are numbered along the chain shown (N, C = ends).

From patent US20160158317A1, “Antimicrobial Peptide Variants and Polynucleotides Encoding Same” (Adenium Biotech A/S, priority 2010, published 2016) come the findings set out here.

This data set is described as follows: Determination of the protein binding (90% serum, 30 kDa filter, HPLC). The class given is in vitro ADME. Conditions: serum. How it is done:
Protein binding assays were performed as follows. The purified peptides were mixed with 90% serum and centrifuged through a 30 kDa filter. The ultra-filtrate and the non filtrated serum samples were quantified by HPLC measurements and the protein binding was subsequently calculated.
Turning to `CC(C)[C@@H]1NC(=O)[C@@H]2CSSC[C@H](NC(=O)[C@H](CO)NC(=O)[C@H](CCCNC(=N)N)NC(=O)[C@H](CCCCN)NC(=O)CNC(=O)[C@H](CC(N)=O)NC(=O)[C@H](CO)NC(=O)[C@H](Cc3ccc(O)cc3)NC1=O)C(=O)N[C@@H](Cc1c[nH]cn1)C(=O)N[C@@H](CCCNC(=N)N)C(=O)N[C@@H](CCCNC(=N)N)C(=O)N[C@H](C(=O)N[C@@H](CC(N)=O)C(=O)O)CSSC[C@H](NC(=O)[C@H](Cc1ccccc1)NC(=O)CN)C(=O)N[C@@H](Cc1c[nH]c3ccccc13)C(=O)N[C@@H](CCCNC(=N)N)C(=O)N[C@@H](C(C)C)C(=O)N2` [compound 509] (H-GFCWRVCVYSNGKRSCHRRCN-OH; disulfide 3-20, 7-16 (inferred); N-terminus and C-terminus assumed), the fraction unbound (usually free concentration divided by total concentration) was 0.13. With `CC(C)[C@@H]1NC(=O)CNC(=O)[C@H](CC(N)=O)NC(=O)[C@H](CCCNC(=N)N)NC(=O)[C@H](Cc2ccc(O)cc2)NC(=O)[C@H](C(C)C)NC(=O)[C@@H]2CSSC[C@H](NC(=O)[C@H](C(C)C)NC(=O)[C@H](CCCNC(=N)N)NC1=O)C(=O)N[C@@H](Cc1c[nH]cn1)C(=O)N[C@@H](CCCNC(=N)N)C(=O)N[C@@H](CCCNC(=N)N)C(=O)N[C@H](C(=O)N[C@@H](Cc1c[nH]cn1)C(=O)O)CSSC[C@H](NC(=O)[C@H](Cc1ccccc1)NC(=O)CN)C(=O)N[C@@H](Cc1c[nH]c3ccccc13)C(=O)N[C@@H](CC(N)=O)C(=O)N[C@@H](C(C)C)C(=O)N2` [compound 282] (H-GFCWNVCVYRNGVRVCHRRCH-OH; disulfide 3-20, 7-16 (inferred); N-terminus and C-terminus assumed) the figure was 0.18. The result for `CC(C)[C@@H]1NC(=O)CNC(=O)[C@H](CC(N)=O)NC(=O)[C@H](CCCNC(=N)N)NC(=O)[C@H](CCCNC(=N)N)NC(=O)[C@H](C(C)C)NC(=O)[C@@H]2CSSC[C@H](NC(=O)[C@H](C(C)C)NC(=O)[C@H](CCCNC(=N)N)NC1=O)C(=O)N[C@@H](Cc1ccc(O)cc1)C(=O)N[C@@H](CCCNC(=N)N)C(=O)N[C@@H](CCCNC(=N)N)C(=O)N[C@H](C(=O)N[C@@H](CC(N)=O)C(=O)O)CSSC[C@H](NC(=O)[C@H](Cc1ccccc1)NC(=O)CN)C(=O)N[C@@H](Cc1c[nH]c3ccccc13)C(=O)N[C@@H](Cc1ccc(O)cc1)C(=O)N[C@@H](C(C)C)C(=O)N2` [compound 28] (H-GFCWYVCVRRNGVRVCYRRCN-OH; disulfide 3-20, 7-16 (inferred); N-terminus and C-terminus assumed) reads 0.08.

`CC(C)[C@@H]1NC(=O)CNC(=O)[C@H](CC(N)=O)NC(=O)[C@H](CCCNC(=N)N)NC(=O)[C@H](Cc2ccc(O)cc2)NC(=O)[C@H](C(C)C)NC(=O)[C@@H]2CSSC[C@H](NC(=O)[C@H](C(C)C)NC(=O)[C@H](CCCNC(=N)N)NC1=O)C(=O)N[C@@H](Cc1ccc(O)cc1)C(=O)N[C@@H](CCCNC(=N)N)C(=O)N[C@@H](CCCNC(=N)N)C(=O)N[C@H](C(=O)N[C@@H](CC(N)=O)C(=O)O)CSSC[C@H](NC(=O)[C@H](Cc1ccccc1)NC(=O)CN)C(=O)N[C@@H](Cc1c[nH]c3ccccc13)C(=O)N[C@@H](CC(N)=O)C(=O)N[C@@H](C(C)C)C(=O)N2` [compound 11] (H-GFCWNVCVYRNGVRVCYRRCN-OH; disulfide 3-20, 7-16 (inferred); N-terminus and C-terminus assumed) showed a fraction unbound of 0.27. Consider `CC(C)[C@@H]1NC(=O)[C@@H]2CSSC[C@H](NC(=O)[C@H](CCCCN)NC(=O)[C@H](CCCNC(=N)N)NC(=O)[C@H](C)NC(=O)CNC(=O)[C@H](CC(N)=O)NC(=O)[C@H](CCCNC(=N)N)NC(=O)[C@H](CCCCN)NC1=O)C(=O)N[C@@H](Cc1c[nH]cn1)C(=O)N[C@@H](CCCNC(=N)N)C(=O)N[C@@H](CCCNC(=N)N)C(=O)N[C@H](C(=O)N[C@@H](CC(N)=O)C(=O)O)CSSC[C@H](NC(=O)[C@H](Cc1ccccc1)NC(=O)CN)C(=O)N[C@@H](Cc1c[nH]c3ccccc13)C(=O)N[C@@H](Cc1ccc(O)cc1)C(=O)N[C@@H](C(C)C)C(=O)N2` [compound 454] (H-GFCWYVCVKRNGARKCHRRCN-OH; disulfide 3-20, 7-16 (inferred); N-terminus and C-terminus assumed), for which the free fraction (fraction unbound) is 0.1. The result for `CC(C)[C@@H]1NC(=O)CNC(=O)[C@H](CC(N)=O)NC(=O)[C@H](CCCNC(=N)N)NC(=O)[C@H](Cc2ccc(O)cc2)NC(=O)[C@H](C(C)C)NC(=O)[C@@H]2CSSC[C@H](NC(=O)[C@H](C(C)C)NC(=O)[C@H](CCCNC(=N)N)NC1=O)C(=O)N[C@@H](Cc1ccc(O)cc1)C(=O)N[C@@H](CCCNC(=N)N)C(=O)N[C@@H](CCCNC(=N)N)C(=O)N[C@H](C(=O)N[C@@H](CC(N)=O)C(=O)O)CSSC[C@H](NC(=O)[C@H](Cc1ccccc1)NC(=O)CN)C(=O)NCC(=O)N[C@@H](CCCNC(=N)N)C(=O)N[C@@H](C(C)C)C(=O)N2` [compound 61] (H-GFCGRVCVYRNGVRVCYRRCN-OH; disulfide 3-20, 7-16 (inferred); N-terminus and C-terminus assumed) reads 0.28. Consider `CC(C)[C@@H]1NC(=O)CNC(=O)[C@H](CCC(N)=O)NC(=O)[C@H](CCCNC(=N)N)NC(=O)[C@H](Cc2ccc(O)cc2)NC(=O)[C@H](C(C)C)NC(=O)[C@@H]2CSSC[C@H](NC(=O)[C@H](C(C)C)NC(=O)[C@H](CCCNC(=N)N)NC1=O)C(=O)N[C@@H](Cc1c[nH]cn1)C(=O)N[C@@H](CCCNC(=N)N)C(=O)N[C@@H](CCCNC(=N)N)C(=O)N[C@H](C(=O)N[C@@H](CC(N)=O)C(=O)O)CSSC[C@H](NC(=O)[C@H](Cc1ccccc1)NC(=O)CN)C(=O)N[C@@H](Cc1c[nH]c3ccccc13)C(=O)N[C@@H](CC(N)=O)C(=O)N[C@@H](C(C)C)C(=O)N2` [compound 233] (H-GFCWNVCVYRQGVRVCHRRCN-OH; disulfide 3-20, 7-16 (inferred); N-terminus and C-terminus assumed), for which the unbound share (fraction unbound) was 0.22. In turn, `CC(C)[C@@H]1NC(=O)[C@@H]2CSSC[C@H](NC(=O)[C@H](C(C)C)NC(=O)[C@H](CCCNC(=N)N)NC(=O)[C@H](C(C)C)NC(=O)[C@H](CCCCN)NC(=O)[C@H](CC(N)=O)NC(=O)[C@H](CCCNC(=N)N)NC(=O)[C@H](Cc3ccc(O)cc3)NC1=O)C(=O)N[C@@H](Cc1c[nH]cn1)C(=O)N[C@@H](CCCNC(=N)N)C(=O)N[C@@H](CCCNC(=N)N)C(=O)N[C@H](C(=O)N[C@@H](CC(N)=O)C(=O)O)CSSC[C@H](NC(=O)[C@H](Cc1ccccc1)NC(=O)CN)C(=O)N[C@@H](Cc1c[nH]c3ccccc13)C(=O)N[C@@H](CC(N)=O)C(=O)N[C@@H](C(C)C)C(=O)N2` [compound 227] (H-GFCWNVCVYRNKVRVCHRRCN-OH; disulfide 3-20, 7-16 (inferred); N-terminus and C-terminus assumed) showed a fraction unbound of 0.2. With `CC(C)[C@@H]1NC(=O)CNC(=O)[C@H](CC(N)=O)NC(=O)[C@H](CCCNC(=N)N)NC(=O)[C@H](Cc2ccc(O)cc2)NC(=O)[C@H](C(C)C)NC(=O)[C@@H]2CSSC[C@H](NC(=O)[C@H](CCCNC(=N)N)NC(=O)[C@H](CCCNC(=N)N)NC1=O)C(=O)N[C@@H](Cc1c[nH]cn1)C(=O)N[C@@H](CCCNC(=N)N)C(=O)N[C@@H](CCCNC(=N)N)C(=O)N[C@H](C(=O)N[C@@H](CC(N)=O)C(=O)O)CSSC[C@H](NC(=O)[C@H](Cc1ccccc1)NC(=O)CN)C(=O)N[C@@H](Cc1c[nH]c3ccccc13)C(=O)N[C@@H](CC(N)=O)C(=O)N[C@@H](C(C)C)C(=O)N2` [compound 252] (H-GFCWNVCVYRNGVRRCHRRCN-OH; disulfide 3-20, 7-16 (inferred); N-terminus and C-terminus assumed) the figure was 0.24.

With `CC(C)[C@@H]1NC(=O)CNC(=O)[C@H](CC(N)=O)NC(=O)[C@H](CCCNC(=N)N)NC(=O)[C@H](Cc2ccc(O)cc2)NC(=O)[C@H](CO)NC(=O)[C@@H]2CSSC[C@H](NC(=O)[C@H](C(C)C)NC(=O)[C@H](CCCNC(=N)N)NC1=O)C(=O)N[C@@H](Cc1ccc(O)cc1)C(=O)N[C@@H](CCCNC(=N)N)C(=O)N[C@@H](CCCNC(=N)N)C(=O)N[C@H](C(=O)N[C@@H](CC(N)=O)C(=O)O)CSSC[C@H](NC(=O)[C@H](Cc1ccccc1)NC(=O)CN)C(=O)N[C@@H](Cc1c[nH]c3ccccc13)C(=O)N[C@@H](Cc1ccc(O)cc1)C(=O)N[C@@H](C(C)C)C(=O)N2` [compound 24] (H-GFCWYVCSYRNGVRVCYRRCN-OH; disulfide 3-20, 7-16), the free fraction (fraction unbound) was 0.15.

The compound `CC(C)C[C@@H]1NC(=O)CNC(=O)[C@H](CC(N)=O)NC(=O)[C@H](CCCNC(=N)N)NC(=O)[C@H](CCCNC(=N)N)NC(=O)[C@H](C)NC(=O)[C@@H]2CSSC[C@H](NC(=O)[C@H](CO)NC(=O)[C@H](CCCNC(=N)N)NC1=O)C(=O)N[C@@H](Cc1ccc(O)cc1)C(=O)N[C@@H](CCCNC(=N)N)C(=O)N[C@@H](CCCNC(=N)N)C(=O)N[C@H](C(=O)N[C@@H](CC(N)=O)C(=O)O)CSSC[C@H](NC(=O)[C@H](Cc1ccccc1)NC(=O)CN)C(=O)N[C@@H](Cc1c[nH]c3ccccc13)C(=O)N[C@@H](Cc1ccc(O)cc1)C(=O)N[C@@H](C(C)C)C(=O)N2` [compound 453] (H-GFCWYVCARRNGLRSCYRRCN-OH; disulfide 3-20, 7-16 (inferred); N-terminus and C-terminus assumed) showed a fraction unbound of 0.08. The result for `CC(C)[C@@H]1NC(=O)CNC(=O)[C@H](CC(N)=O)NC(=O)[C@H](CCCNC(=N)N)NC(=O)[C@H](Cc2ccc(O)cc2)NC(=O)[C@H](C(C)C)NC(=O)[C@@H]2CSSC[C@H](NC(=O)[C@H](C(C)C)NC(=O)[C@H](CCCNC(=N)N)NC1=O)C(=O)N[C@@H](Cc1c[nH]cn1)C(=O)N[C@@H](CCCNC(=N)N)C(=O)N[C@@H](CCCNC(=N)N)C(=O)N[C@H](C(=O)N[C@@H](CC(N)=O)C(=O)O)CSSC[C@H](NC(=O)[C@H](Cc1ccccc1)NC(=O)CN)C(=O)N[C@@H](Cc1ccc(O)cc1)C(=O)N[C@@H](CCCNC(=N)N)C(=O)N[C@@H](C(C)C)C(=O)N2` [compound 210] (H-GFCYRVCVYRNGVRVCHRRCN-OH; disulfide 3-20, 7-16 (inferred); N-terminus and C-terminus assumed) reads 0.11.
